This note sets out measurements from patent US8895504B2, “Amylin derivatives” (priority 2008, dated 2014).

The target of this assay is T1, Amylin 3(a) receptor (human calcitonin receptor (CTa) and RAMP-3) (Homo sapiens, UniProt O60896+P30988).
T1 construct: expressed in transfected cells; host or cells: BHK570 cells, stably transfected with a CRE-luciferase reporter
The assay is described as follows: Luciferase assay (III), BHK Amylin 3(a)//CRE-luc cells. It counts as cell-based. Particulars: BHK cells with Amylin 3(a) receptor and CRE luciferase reporter, 4 hours incubation; read-out: Potency Luciferase. Put shortly: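 BHK570 cells stably expressing CTa, RAMP-3 and a CRE-luciferase reporter, seeded at about 20,000 cells/well and grown overnight. Cells were exposed to standard or sample for 4 h at 37° C in phenol red-free DMEM with 10% FBS and 10 mM Hepes, pH 7,4. Luminescence was read after 30 min LucLite at room temperature.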

*1 amine or outer side, *2 acyl side, *3 side chain or, on linkers, in order; H or OH if unused. Where a SMILES comes first, the peptide text is derived from it. Bridges are numbered along the chain shown (N, C = ends). The star is where a group is joined. C20 diacid = O=C(O)CCCCCCCCCCCCCCCCCCC(=O)*; γGlu = O=C(O)[C@H](CCC(=O)[*:2])N[*:1]

T1 sequence (O60896 24-148): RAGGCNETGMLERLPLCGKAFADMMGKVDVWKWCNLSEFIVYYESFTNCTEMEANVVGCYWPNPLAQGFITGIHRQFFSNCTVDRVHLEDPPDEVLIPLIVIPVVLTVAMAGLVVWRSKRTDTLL
T1 sequence (P30988 25-474): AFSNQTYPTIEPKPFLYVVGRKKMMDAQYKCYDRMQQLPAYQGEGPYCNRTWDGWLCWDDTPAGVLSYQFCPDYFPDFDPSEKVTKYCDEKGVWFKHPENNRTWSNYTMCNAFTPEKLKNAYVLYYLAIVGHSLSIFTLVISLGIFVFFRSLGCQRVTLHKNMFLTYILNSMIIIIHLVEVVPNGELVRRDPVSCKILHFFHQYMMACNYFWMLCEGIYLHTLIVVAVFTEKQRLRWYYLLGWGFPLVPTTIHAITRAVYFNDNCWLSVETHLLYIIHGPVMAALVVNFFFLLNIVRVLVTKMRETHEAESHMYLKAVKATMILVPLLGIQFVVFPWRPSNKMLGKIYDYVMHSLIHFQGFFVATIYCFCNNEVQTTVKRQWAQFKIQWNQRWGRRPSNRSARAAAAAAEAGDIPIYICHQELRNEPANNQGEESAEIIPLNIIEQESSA

With `CC[C@H](C)[C@H](NC(=O)[C@@H]1CCCN1C(=O)CNC(=O)[C@H](Cc1ccccc1)NC(=O)[C@H](CC(N)=O)NC(=O)[C@H](CC(N)=O)NC(=O)[C@H](CO)NC(=O)[C@H](CO)NC(=O)[C@H](Cc1c[nH]cn1)NC(=O)[C@H](Cc1c[nH]cn1)NC(=O)[C@H](CC(C)C)NC(=O)[C@H](Cc1ccccc1)NC(=O)[C@H](CC(N)=O)NC(=O)[C@H](C)NC(=O)[C@H](CC(C)C)NC(=O)[C@H](CCCNC(=N)N)NC(=O)[C@H](CCC(N)=O)NC(=O)[C@@H](NC(=O)[C@H](C)NC(=O)[C@@H]1CSSC[C@H](NC(=O)[C@H](Cc2c[nH]cn2)NC(=O)[C@H](CCCNC(=N)N)NC(=O)[C@H](Cc2c[nH]cn2)NC(=O)CC[C@H](NC(=O)CCCCCCCCCCCCCCCCCCC(=O)O)C(=O)O)C(=O)N[C@@H](CC(N)=O)C(=O)N[C@@H]([C@@H](C)O)C(=O)N[C@@H](C)C(=O)N[C@@H]([C@@H](C)O)C(=O)N1)[C@@H](C)O)C(=O)N[C@@H](CC(C)C)C(=O)N1CCC[C@H]1C(=O)N1CCC[C@H]1C(=O)N[C@H](C(=O)N[C@@H](CC(N)=O)C(=O)N[C@H](C(=O)NCC(=O)N[C@@H](CO)C(=O)N[C@@H](CC(N)=O)C(=O)N[C@H](C(=O)N[C@@H](Cc1ccc(O)cc1)C(N)=O)[C@@H](C)O)C(C)C)[C@@H](C)O` [Example 72, N-alpha-[(S)-4-Carboxy-4-(19-carboxynonadecanoylamino)butyryl]-His-Arg-[His1,His17]-pramlintide] ({C20 diacid-γGlu}-HRHCNTATCATQRLANFLHHSSNNFGPILPPTNVGSNTY-NH2; disulfide 4-9), the EC50 stood at 0.05 nM.
